Our source for the IC50 values is patent US5436254A, “Carbostyril derivatives” (Otsuka Pharmaceutical Company, Ltd., priority 1989, dated 1995).

What is called IC50 is the concentration that inhibits the measured activity by half.

The target in one experiment is V1 receptor (Rattus norvegicus, UniProt P30560). The experiment is described as follows: biochemical. The class given is binding.
Chain of V1 receptor (P30560 whole entry): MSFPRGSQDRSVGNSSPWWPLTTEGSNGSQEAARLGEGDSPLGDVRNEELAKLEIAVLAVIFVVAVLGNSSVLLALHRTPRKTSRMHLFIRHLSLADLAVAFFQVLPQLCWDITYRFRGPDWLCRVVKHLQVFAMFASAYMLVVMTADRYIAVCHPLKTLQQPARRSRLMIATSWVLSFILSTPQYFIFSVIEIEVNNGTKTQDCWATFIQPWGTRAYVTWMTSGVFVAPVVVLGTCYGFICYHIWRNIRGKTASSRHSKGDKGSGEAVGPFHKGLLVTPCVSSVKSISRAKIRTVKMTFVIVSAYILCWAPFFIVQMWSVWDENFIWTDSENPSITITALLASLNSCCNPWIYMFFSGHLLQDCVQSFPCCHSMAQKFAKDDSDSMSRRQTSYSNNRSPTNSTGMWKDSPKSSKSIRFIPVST
Conditions: not given
With `O=C(CO)NCCCCCOc1ccc(C(=O)N2CCC(N3C(=O)CCc4ccccc43)CC2)cc1` [Example 230, 1-[1-(4-[5-(2-Hydroxyacetylamino)pentyloxy]benzoyl)-4-piperidinyl)-3,4-dihydrocarbostyril], the IC50 came to 180 nM. In turn, `O=C(NCCCCOc1ccc(C(=O)N2CCC(N3C(=O)CCc4ccccc43)CC2)cc1)C1CCNCC1` [Example 231, 1-[1-(4-[4-(4-Piperidinylcarbonylamino)butoxy]benzoyl)-4-piperidinyl)-3,4-dihydrocarbostyril] showed an IC50 of 41 nM. The same measure, in the same setting: the figure for `CC(=O)N1CCC(C(=O)NCCCCOc2ccc(C(=O)N3CCC(N4C(=O)CCc5ccccc54)CC3)cc2)CC1` [Example 232, 1-{1-(4-[4-(1-Acetyl-4-piperidinylcarbonylamino)butoxy]benzoyl)-4-piperidinyl)-3,4-dihydrocarbostyril] is 120 nM; for `O=C(c1ccc(OCCCCCN2CCN(c3ncccn3)CC2)cc1)N1CCC(N2C(=O)CCc3ccccc32)CC1` [Example 233, 1-{1-(4-[5-(4-[2-Pyrimidyl]-1-piperazinyl)pentyloxy]benzoyl)-4-piperidinyl}-3,4-dihydrocarbostyril] it is 210 nM; for `O=C(c1ccc(OCCCCCN2CCN(c3ccccn3)CC2)cc1)N1CCC(N2C(=O)CCc3ccccc32)CC1` [Example 234, 1-{1-(4-[5-(4-[2-Pyridyl]-1-piperazinyl)pentyloxy]benzoyl)-4-piperidinyl}-3,4-dihydrocarbostyril] it is 180 nM.

`CC[N+](CC)(CC)CCCCCOc1ccc(C(=O)N2CCC(N3C(=O)CCc4ccccc43)CC2)cc1` [Example 235, 1-{1-[4-(5-Triethylammouniumpentyloxy)benzoyl]-4-piperidinyl)-3,4-dihydrocarbostyril bromide] displayed an IC50 of 66 nM.

Regarding `O=C(c1ccc(OCCCCCN2CCC[C@H]2CO)cc1)N1CCC(N2C(=O)CCc3ccccc32)CC1` [Example 238, 1-(1-(4-[5-(2-(S)-Hydroxymethyl-1-pyrrolidinyl)pentyloxy]benzoyl)-4-piperidinyl}-3,4-dihydrocarbostyril], half-maximal inhibition (IC50) required 33 nM. `COC(=O)[C@@H]1CCCN1CCCCCOc1ccc(C(=O)N2CCC(N3C(=O)CCc4ccccc43)CC2)cc1` [Example 239, 1-{1-(4-[5-(2-(S)-Methoxycarbonyl-1-pyrrolidinyl)pentyloxy]benzoyl)-4-piperidinyl}-3,4-dihydrocarbostyril] showed an IC50 of 150 nM. Turning to `O=C(c1ccc(OCCCCCN2CCCC(O)C2)cc1)N1CCC(N2C(=O)CCc3ccccc32)CC1` (centres unmarked) [Example 240, 1-{1-(4-[5-(3-Hydroxy-1-piperidinyl)pentyloxy]benzoyl)-4-piperidinyl}-3,4-dihydrocarbostyril], the IC50 was 48 nM. Still for that read-out and setting: the value for `O=C(c1ccc(OCCCCCN2CCCCC2CO)cc1)N1CCC(N2C(=O)CCc3ccccc32)CC1` (centres unmarked) [Example 241, 1-{1-(4-[5-(2-Hydroxymethyl-1-piperidinyl)pentyloxy]benzoyl)-4-piperidinyl}-3,4-dihydrocarbostyril] was 21 nM; that for `CC1CCN(CCCCCOc2ccc(C(=O)N3CCC(N4C(=O)CCc5ccccc54)CC3)cc2)CC1` [Example 242, 1-{1-(4-[5-(4-Methyl-1-piperidinyl)pentyloxy]benzoyl)-4-piperidinyl}-3,4-dihydrocarbostyril] was 59 nM; that for `O=C(c1ccc(OCCCCCCN2CCCCC2)cc1)N1CCC(N2C(=O)CCc3ccccc32)CC1` [Example 243, 1-{1-(4-[6-(1-Piperidinyl)hexyloxy]benzoyl)-4-piperidinyl}-3,4-dihydrocarbostyril] was 39 nM. Molecule `CN(CCO)CCCCCOc1ccc(C(=O)N2CCC(N3C(=O)CCc4ccccc43)CC2)cc1` [Example 244, 1-{1-(4-[5-(N-(2-Hydroxyethyl)-N-methylamino)pentyloxy]benzoyl)-4-piperidinyl}-3,4-dihydrocarbostyril] yielded a half-inhibitory concentration (IC50) of 34 nM. `C=CCN(C)CCCCCOc1ccc(C(=O)N2CCC(N3C(=O)CCc4ccccc43)CC2)cc1` [Example 245, 1-{1-(4-[5-(N-Allyl-N-methylamino)pentyloxy]benzoyl)-4-piperidinyl}-3,4-dihydrocarbostyril] showed a concentration for half-maximal inhibition (IC50) of 54 nM. Still for that read-out and setting: the figure for `C=CC[N+](C)([O-])CCCCCOc1ccc(C(=O)N2CCC(N3C(=O)CCc4ccccc43)CC2)cc1` (centres unmarked) [Example 246, N-{5-[4-(4-(3,4-Dihydrocarbostyril-1-yl)-1-piperidinylcarbonyl)phenoxy]pentyl}, N-methyl, N-allylamine oxide] is 290 nM. In turn, `CN(CCC#N)CCCCCOc1ccc(C(=O)N2CCC(N3C(=O)CCc4ccccc43)CC2)cc1` [Example 247, 1-{1-(4-[5-(N-(2-Cyanoethyl)-N-methylamino)pentyloxy]benzoyl)-4-piperidinyl}-3,4-dihydrocarbostyril] returned an IC50 of 170 nM. Consider `CN(C)CCN(CCCCCOc1ccc(C(=O)N2CCC(N3C(=O)CCc4ccccc43)CC2)cc1)Cc1ccccc1` [Example 248, 1-{1-(4-[5-(N-(2-Dimethylaminoethyl)-N-benzylamino)pentyloxy]benzoyl)-4-piperidinyl}-3,4-dihydrocarbostyril], for which it took 34 nM to reach half-maximal inhibition (IC50). Still for that read-out and setting: the figure for `CC(=O)OCCN(CCCCCOc1ccc(C(=O)N2CCC(N3C(=O)CCc4ccccc43)CC2)cc1)CCOC(C)=O` [Example 249, 1-{1-(4-[5-(N,N-Di(2-acetoxyethyl)amino)pentyloxy]benzoyl)-4-piperidinyl}-3,4-dihydrocarbostyril] is 45 nM; for `O=C(CCCNC(=O)OCc1ccccc1)NCCCCCOc1ccc(C(=O)N2CCC(N3C(=O)CCc4ccccc43)CC2)cc1` [Example 250, 1-{1-(4-[5-(4-Benzyloxycarbonylaminobutyrylamino)pentyloxy]benzoyl)-4-piperidinyl}-3,4-dihydrocarbostyril] it is 320 nM; for `C=CCNCC(=O)NCCCCCOc1ccc(C(=O)N2CCC(N3C(=O)CCc4ccccc43)CC2)cc1` [Example 251] it is 98 nM. Still for that read-out and setting: the value for `O=C(CN1CCCC1)NCCCCCOc1ccc(C(=O)N2CCC(N3C(=O)CCc4ccccc43)CC2)cc1` [Example 252, 1-{1-(4-[5-(2-(1-Pyrrolidinyl)acetylamino)pentyloxy]benzoyl)-4-piperidinyl}-3,4-dihydrocarbostyril] was 86 nM. For `O=C(CN1CCOCC1)NCCCCCOc1ccc(C(=O)N2CCC(N3C(=O)CCc4ccccc43)CC2)cc1` [Example 253, 1-{1-(4-[5-(2-Morpholinoacetylamino)pentyloxy]benzoyl)-4-piperidinyl}-3,4-dihydrocarbostyril], the IC50 worked out at 180 nM. On the same count and under the same terms, the figure for `CN1CCN(CC(=O)NCCCCCOc2ccc(C(=O)N3CCC(N4C(=O)CCc5ccccc54)CC3)cc2)CC1` [Example 254, 1-{1-(4-[5-(2-(4-Methyl-1-piperazinyl)acetylamino)pentyloxy]benzoyl)-4-piperidinyl}-3,4-dihydrocarbostyril] is 60 nM. On the same count and under the same terms, the value for `O=C(CN1CCN(c2ccccc2)CC1)NCCCCCOc1ccc(C(=O)N2CCC(N3C(=O)CCc4ccccc43)CC2)cc1` [Example 255, 1-{1-(4-[5-(2-(4-Phenyl-1-piperazinyl)acetylamino)pentyloxy]benzoyl)-4-piperidinyl}-3,4-dihydrocarbostyril] was 380 nM. `O=C(CNCc1ccccc1)NCCCCCOc1ccc(C(=O)N2CCC(N3C(=O)CCc4ccccc43)CC2)cc1` [Example 256, 1-{1-(4-[5-(2-Benzylaminoacetylamino)pentyloxy]benzoyl)-4-piperidinyl}-3,4-dihydrocarbostyril] displayed a half-maximal inhibitory concentration (IC50) of 190 nM.

Molecule `CN(CCO)CC(=O)NCCCCCOc1ccc(C(=O)N2CCC(N3C(=O)CCc4ccccc43)CC2)cc1` [Example 257, 1-{1-(4-[5-(2-(N-(2-Hydroxyethyl)-N-methylamino)acetylamino)pentyloxy]benzoyl)-4-piperidinyl}-3,4-dihydrocarbostyril] returned an IC50 of 200 nM.

For `CN(C)c1ccc(S(=O)(=O)NCCCCCOc2ccc(C(=O)N3CCC(N4C(=O)CCc5ccccc54)CC3)cc2)cc1` [Example 258, 1-{1-(4-[5-(4-Dimethylaminophenylsulfonylamino)pentyloxy]benzoyl)-4-piperidinyl]-3,4-dihydrocarbostyril], 470 nM corresponded to half-maximal inhibition (IC50).

As for `CC(=O)Nc1ccc(C(=O)NCCCCCOc2ccc(C(=O)N3CCC(N4C(=O)CCc5ccccc54)CC3)cc2)cc1` [Example 259, 1-{1-(4-[5-(4-Acetylaminobenzoyl)aminopentyloxy]benzoyl)-4-piperidinyl}-3,4'-dihydrocarbostyril], the half-inhibitory concentration (IC50) turned out to be 110 nM. The same measure, in the same setting: the value for `O=C(NCCCCCOc1ccc(C(=O)N2CCC(N3C(=O)CCc4ccccc43)CC2)cc1)C1CCC(O)C(O)C1` (centres unmarked) [Example 260] was 150 nM; that for `CC(=O)OC1CCC(C(=O)NCCCCCOc2ccc(C(=O)N3CCC(N4C(=O)CCc5ccccc54)CC3)cc2)CC1OC(C)=O` (centres unmarked) [Example 261, 1-{1-(4-[5-(3,4-Diacetoxycyclohexylcarbonyl)aminopentyloxy]benzoyl)-4-piperidinyl}-3,4-dihydrocarbostyril] was 120 nM; that for `Nc1ccc(C(=O)NCCCCCOc2ccc(C(=O)N3CCC(N4C(=O)CCc5ccccc54)CC3)cc2)cc1` [Example 262, 1-{1-(4-[5-(4-Aminobenzoyl)aminopentyloxy]benzoyl)-4-piperidinyl}-3,4-dihydrocarbostyril] was 93 nM. Still for that read-out and setting: the value for `O=C(c1ccc(OCCCCCNS(=O)(=O)c2ccc([N+](=O)[O-])cc2)cc1)N1CCC(N2C(=O)CCc3ccccc32)CC1` [Example 263, 1-{1-(4-[5-(4-Nitrophenylsulfonyl)aminopentyloxy]benzoyl)-4-piperidinyl}-3,4-dihydrocarbostyril] was 360 nM; that for `Nc1ccc(S(=O)(=O)NCCCCCOc2ccc(C(=O)N3CCC(N4C(=O)CCc5ccccc54)CC3)cc2)cc1` [Example 264, 1-{1-(4-[5-(4-Aminophenylsulfonyl)aminopentyloxy]benzoyl)-4-piperidinyl}-3,4-dihydrocarbostyril] was 160 nM.

Staying with this experiment, now noted: [H]3-Arg-vasopressin 2×10^-10 M, rat liver plasma membrane, 37° C., 10 minutes, pH 8.0.
Regarding `O=C(c1ccc(OCCCCCn2ccnc2)cc1)N1CCC(N2C(=O)CCc3ccccc32)CC1` [Example 236], the half-inhibitory concentration (IC50) was found to be 260 nM. Regarding `O=C(c1ccc(OCCCCCn2cncn2)cc1)N1CCC(N2C(=O)CCc3ccccc32)CC1` [Example 237], the IC50 was found to be 75 nM.
